Values of other authors as cited in paper PMC11154582, “Modeling the Blood-Brain Barrier Permeability of Potential Heterocyclic Drugs via Biomimetic IAM Chromatography Technique Combined with QSAR Methodology” (Molecules, 2024).
Read-outs that look alike come from different tables or passages of the source.

Conditions: IAM column, cited from earlier work

Compound	log kw, IAM (ref [23])	further results
Cc1ccc(N2CCn3c2nnc(C(F)(F)F)c3=O)cc1 [Compound 17]		log kw, IAM (ref [22]): 1.25
O=c1c(C(F)(F)F)nnc2n1CCN2c1cccc(Cl)c1 [Compound 20]		log kw, IAM (ref [22]): 1.66
O=c1c(C(F)(F)F)nnc2n1CCN2c1ccc(Cl)cc1 [Compound 21]		log kw, IAM (ref [22]): 1.58
O=c1c(C(F)(F)F)nnc2n1CCN2c1ccc(Cl)c(Cl)c1 [Compound 22]		log kw, IAM (ref [22]): 2.29
CCc1nnc2n(c1=O)CCN2c1ccccc1 [Compound 23]	0.55	
CCc1nnc2n(c1=O)CCN2c1ccc(C)cc1 [Compound 24]	1.00	
CCc1nnc2n(c1=O)CCN2c1ccccc1Cl [Compound 25]	0.80	
CCc1nnc2n(c1=O)CCN2c1cccc(Cl)c1 [Compound 26]	0.84	
CCc1nnc2n(c1=O)CCN2c1ccc(Cl)cc1 [Compound 27]	1.24	
CC(C)c1nnc2n(c1=O)CCN2c1ccccc1 [Compound 29]		log kw, IAM (ref [22]): 0.76
Cc1ccc(N2CCn3c2nnc(C(C)C)c3=O)cc1 [Compound 30]		log kw, IAM (ref [22]): 1.05
CC(C)c1nnc2n(c1=O)CCN2c1cccc(Cl)c1 [Compound 32]		log kw, IAM (ref [22]): 1.49
CCOC(=O)c1nnc2n(c1=O)CCN2c1ccccc1 [Compound 35]		log kw, IAM (ref [22]): 0.48
CCOC(=O)c1nnc2n(c1=O)CCN2c1ccc(C)cc1 [Compound 36]		log kw, IAM (ref [22]): 1.93
CCOC(=O)c1nnc2n(c1=O)CCN2c1ccc(Cl)cc1 [Compound 38]		log kw, IAM (ref [22]): 1.12
COC(=O)Cc1nnc2n(c1=O)CCN2c1ccccc1 [Compound 40]	0.81	
CCOc1ccc(N2CCn3c2nnc(CC(=O)OC)c3=O)cc1 [Compound 43]	1.42	
COC(=O)Cc1nnc2n(c1=O)CCN2c1ccc(Cl)cc1 [Compound 44]	1.82	
CCOC(=O)Cc1nnc2n(c1=O)CCN2c1ccc(C)cc1 [Compound 46]	1.70	
CCOC(=O)Cc1nnc2n(c1=O)CCN2c1ccccc1OC [Compound 47]	0.91	

Compound	log kw, IAM (ref [23])	further results
CCOC(=O)Cc1nnc2n(c1=O)CCN2c1ccc(Cl)cc1 [Compound 49]	2.11	
Cc1ccc(N2CCn3c2nnc(C(=O)NN)c3=O)cc1 [Compound 52]		log kw, IAM (ref [21]): 0.16
O=c1c(-c2ccco2)nnc2n1CCN2c1ccccc1 [Compound 61]	1.29	
Cc1ccccc1N1CCn2c1nnc(-c1ccco1)c2=O [Compound 62]	0.96	
Cc1ccc(N2CCn3c2nnc(-c2ccco2)c3=O)cc1 [Compound 63]	1.69	
Cc1cccc(N2CCn3c2nnc(-c2ccco2)c3=O)c1C [Compound 64]	1.42	
COc1ccccc1N1CCn2c1nnc(-c1ccco1)c2=O [Compound 65]	1.11	
COc1ccc(N2CCn3c2nnc(-c2ccco2)c3=O)cc1 [Compound 66]	1.19	
O=c1c(-c2ccco2)nnc2n1CCN2c1ccccc1Cl [Compound 67]	1.27	
O=c1c(-c2ccco2)nnc2n1CCN2c1cccc(Cl)c1 [Compound 68]	2.08	
O=c1c(-c2ccco2)nnc2n1CCN2c1ccc(Cl)cc1 [Compound 69]	2.02	
O=c1c(-c2ccco2)nnc2n1CCN2c1ccc(Cl)c(Cl)c1 [Compound 70]	3.23	
O=c1c(-c2ccco2)nnc2n1CCN2c1c(Cl)cccc1Cl [Compound 71]	1.70	
O=c1c(-c2ccccc2)nnc2n1CCN2c1ccccc1 [Compound 81]	1.91	
Cc1ccccc1N1CCn2c1nnc(-c1ccccc1)c2=O [Compound 82]	1.53	
Cc1ccc(N2CCn3c2nnc(-c2ccccc2)c3=O)cc1 [Compound 84]	2.22	
COc1ccccc1N1CCn2c1nnc(-c1ccccc1)c2=O [Compound 85]	1.47	
CCOc1ccc(N2CCn3c2nnc(-c2ccccc2)c3=O)cc1 [Compound 87]	2.14	
Cc1cccc(N2CCn3c2nnc(-c2ccccc2)c3=O)c1C [Compound 88]	1.85	
O=c1c(-c2ccccc2)nnc2n1CCN2c1cccc(Cl)c1 [Compound 90]	2.64	

Compound	log kw, IAM (ref [23])	further results
O=c1c(Cc2ccccc2)nnc2n1CCN2c1ccccc1 [Compound 102]	3.26	
O=c1c(Cc2cccc(Cl)c2)nnc2n1CCN2c1ccccc1 [Compound 104]	2.48	
O=c1c(Cc2ccc(Cl)cc2)nnc2n1CCN2c1ccccc1 [Compound 105]	2.39	
Cc1ccc(N2CCn3c2nnc(Cc2ccccc2)c3=O)cc1 [Compound 106]	2.15	
Cc1ccc(Cc2nnc3n(c2=O)CCN3c2ccc(C)cc2)cc1 [Compound 107]	2.51	
Cc1ccc(N2CCn3c2nnc(Cc2cccc(C)c2)c3=O)cc1 [Compound 108]	2.59	
Cc1ccc(N2CCn3c2nnc(Cc2cccc(Cl)c2)c3=O)cc1 [Compound 110]	2.78	
Cc1ccc(N2CCn3c2nnc(Cc2ccc(Cl)cc2)c3=O)cc1 [Compound 111]	2.81	
CCOc1ccc(N2CCn3c2nnc(Cc2ccc(C)cc2)c3=O)cc1 [Compound 113]	2.43	
CCOc1ccc(N2CCn3c2nnc(Cc2cccc(Cl)c2)c3=O)cc1 [Compound 115]	2.73	
Cc1ccccc1N1CCn2c1nnc(Cc1ccccc1Cl)c2=O [Compound 117]	2.02	
O=c1c(Cc2ccccc2)nnc2n1CCN2c1ccc(Cl)cc1 [Compound 118]	2.52	
O=c1c(Cc2ccccc2Cl)nnc2n1CCN2c1ccc(Cl)cc1 [Compound 119]	3.22	
O=c1c(Cc2cccc(Cl)c2)nnc2n1CCN2c1ccc(Cl)cc1 [Compound 120]	3.15	
O=c1c(Cc2ccc(Cl)cc2)nnc2n1CCN2c1ccc(Cl)cc1 [Compound 121]	3.17	
O=c1c(CCc2ccccc2)nnc2n1CCN2c1ccccc1 [Compound 122]	2.07	
Cc1ccc(N2CCn3c2nnc(CCc2ccccc2)c3=O)cc1 [Compound 123]	2.41	
O=c1c(CCc2ccccc2)nnc2n1CCN2c1ccccc1Cl [Compound 124]	1.81	
O=c1c(CCc2ccccc2)nnc2n1CCN2c1ccc(Cl)cc1 [Compound 125]	2.68	
O=c1c(CCc2ccccc2)nnc2n1CCN2c1ccc(Cl)c(Cl)c1 [Compound 126]	3.40	
